In patent US12565504B2, “Spirocyclic O-glycoprotein-2-acetamido-2-deoxy-3-d-glucopyranosidase inhibitors” (BIOGEN MA INC., priority 2019, dated 2026):

Assays:
[1] = target: Recombinant full length human OGA enzyme (Homo sapiens (Human), UniProt O60502); experiment: OGA Enzyme Inhibition Biochemical Assay; details: 1 nM OGA, 100 μM 4-MUGlcNAc, 90 minutes, pH 6.4
Protocol: Recombinant full length human OGA enzyme was purchased from Origene. 4-MUGlcNAc substrate was purchased from Sigma. All other reagents were purchased from Sigma or Fisher. Assay buffer consists of the McIlvaine buffer system, pH 6.4 (0.2M Na2HPO4 mixed with 0.1M citric acid) and 0.01% BSA. […] Reactions were incubated for 90 minutes at room temperature and quenched with 40 μl of 3M glycine, pH 10 and read on a Perkin Elmer Envision plate reader (Ex: 355 nm/Em: 460 nm). Compounds were tested with a 10-point dose-response starting from 20 μM with a 4-fold dilution. Data was fit using GraphPad Prism using a 4-parameter fit with variable slope.

[2] = target: OGA (S400 O-GLCNAC) (Homo sapiens (Human), UniProt O60502); experiment: Cellular OGA-Tau MSD Assay; type: cell-based; details: HEK-293T cells transfected with OGT and Tau-V5; Tau-S400-GlcNAc MSD readout
Sequence of OGA (S400 O-GLCNAC) (O60502 whole entry): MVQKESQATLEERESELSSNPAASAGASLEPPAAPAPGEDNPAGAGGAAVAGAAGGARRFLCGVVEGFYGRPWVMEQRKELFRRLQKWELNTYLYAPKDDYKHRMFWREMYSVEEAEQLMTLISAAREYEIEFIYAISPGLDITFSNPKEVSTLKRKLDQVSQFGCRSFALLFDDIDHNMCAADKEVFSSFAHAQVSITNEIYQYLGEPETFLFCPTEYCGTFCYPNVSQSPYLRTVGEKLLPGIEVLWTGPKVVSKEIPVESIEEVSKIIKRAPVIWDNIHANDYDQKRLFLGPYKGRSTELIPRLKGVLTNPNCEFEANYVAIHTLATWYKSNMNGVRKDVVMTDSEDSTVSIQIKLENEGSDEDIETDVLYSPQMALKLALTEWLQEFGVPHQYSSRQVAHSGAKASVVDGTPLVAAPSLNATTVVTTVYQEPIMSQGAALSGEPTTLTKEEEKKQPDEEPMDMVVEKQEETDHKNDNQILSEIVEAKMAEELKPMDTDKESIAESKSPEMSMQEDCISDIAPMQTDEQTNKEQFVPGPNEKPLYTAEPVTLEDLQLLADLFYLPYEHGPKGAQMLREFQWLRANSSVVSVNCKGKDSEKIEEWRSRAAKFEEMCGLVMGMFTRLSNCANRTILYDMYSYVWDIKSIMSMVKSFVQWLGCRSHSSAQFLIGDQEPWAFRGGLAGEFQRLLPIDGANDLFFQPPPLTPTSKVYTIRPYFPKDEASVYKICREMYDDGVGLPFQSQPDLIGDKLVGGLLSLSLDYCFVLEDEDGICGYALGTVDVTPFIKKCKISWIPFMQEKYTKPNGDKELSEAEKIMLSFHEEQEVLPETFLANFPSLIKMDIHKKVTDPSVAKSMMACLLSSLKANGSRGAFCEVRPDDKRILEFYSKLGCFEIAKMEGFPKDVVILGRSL
Protocol: HEK-293T cells were transfected with OGT and Tau-V5 plasmids using Lipofectamine and grown overnight. Next day, the cells were collected and re-plated at 1×10^5 cells per well in 96 well plates. Cells were incubated for 4 hr at 37° C., before compounds were added at 1 uM, with 3-fold dilutions in a 10-point titration. Cell plates were incubated with compounds overnight at 37° C. The next day media was removed from wells by gentle aspiration and 120 ul of 1× Cell Lysis buffer mixed with protease and phosphatase cocktail added to each well. A freeze thaw was performed at −80° C., then mixed before transferring 50 μl to MSD plates coated with V5-tag antibody to capture Tau. MSD Plates were incubated overnight at 4° C., on a plate shaker. The following day, plates were washed and incubated with Tau-S400-GlcNAc antibody for 2 hr and then developed with rabbit Sulfo-tag antibody. Final read out was carried out on an MSD 600 reader. The data was analyzed using Graph Pad or Genedata, the data was normalized and % activity versus log of compound concentration was plotted. The ICso values were obtained from a 4 parameter fit.

Sequence of Recombinant full length human OGA enzyme (O60502 whole entry): as above

SMILES	IC50 [1] [nM]	IC50 [2] [nM]
CC(=O)Nc1nc(F)c(CN2C[C@@]3(Cc4cc(N5CCC5)ncc4O3)C[C@@H]2C)s1 [Example 34, N-(5-(((2R,5′S)-5-(Azetidin-1-yl)-5′-methyl-3H-spiro[furo[2,3-c]pyridine-2,3′-pyrrolidin]-1′-yl)methyl)-4-fluorothiazol-2-yl)acetamide]	< 1	1
CC(=O)Nc1nc(F)c(CN2CCC[C@@]3(C2)OCc2c3ccnc2Cl)s1 [Example 84-a, (R)—N-(5-((4-chloro-3H-spiro[furo[3,4-c]pyridine-1,3′-piperidin]-1′-yl)methyl)-4-fluorothiazol-2-yl)acetamide]	2.6	8.5
CC(=O)Nc1ncc(CN2CC3(CCC2C)OCc2ccccc23)s1 (stereo not drawn) [Example 60, N-(5-((6′-Methyl-3H-spiro[isobenzofuran-1,3′-piperidin]-1′-yl)methyl)thiazol-2-yl)acetamide]	1700	> 1000
COc1nccc2c1C[C@]1(C[C@H](C)N(Cc3sc(NC(C)=O)nc3F)C1)O2 [Example 18, N-(4-Fluoro-5-(((2R,5′S)-4-methoxy-5′-methyl-3H-spiro[furo[3,2-c]pyridine-2,3′-pyrrolidin]-1′-yl)methyl)thiazol-2-yl)acetamide]	2	4
CC(=O)Nc1ncc(CN2C[C@@]3(Cc4cc(C(F)F)ncc4O3)C[C@@H]2C)s1 [Example 27, N-(5-(((2R,5′S)-5-(Difluoromethyl)-5′-methyl-3H-spiro[furo[2,3-c]pyridine-2,3′-pyrrolidin]-1′-yl)methyl)thiazol-2-yl)acetamide]	11	16
CC(=O)Nc1nc(F)c(CN2C[C@@]3(Cc4cc(C)ncc4O3)C[C@@H]2C)s1 [Example 23, N-(5-(((2R,5′S)-5,5′-Dimethyl-3H-spiro[furo[2,3-c]pyridine-2,3′-pyrrolidin]-1′-yl)methyl)-4-fluorothiazol-2-yl)acetamide]	1	13
COc1cc2c(cn1)O[C@]1(C2)C[C@H](C)N(Cc2sc(NC(C)=O)nc2F)C1 [Example 16, N-(4-Fluoro-5-(((2R,5′S)-5-methoxy-5′-methyl-3H-spiro[furo[2,3-c]pyridine-2,3′-pyrrolidin]-1′-yl)methyl)thiazol-2-yl)acetamide]	< 1	2
CC(=O)Nc1ncc(CN2C[C@@]3(Cc4ccccc4O3)C[C@@H]2C)s1 [Example 2, N-(5-(((2R,5′S)-5′-Methyl-3H-spiro[benzofuran-2,3′-pyrrolidin]-1′-yl)methyl)thiazol-2-yl)acetamide]	27	41
CC(=O)Nc1nc(F)c(CN2C[C@@]3(Cc4cc(NC(C)C)ncc4O3)C[C@@H]2C)s1 [Example 30, N-(4-Fluoro-5-(((2R,5′S)-5-(isopropylamino)-5′-methyl-3H-spiro[furo[2,3-c]pyridine-2,3′-pyrrolidin]-1′-yl)methyl)thiazol-2-yl)acetamide]	< 1	8
CC(=O)Nc1ncc(CN2CCCC3(C2)OCc2ccccc23)s1 (stereo not drawn) [Example 55, N-(5-((3H-Spiro[isobenzofuran-1,3′-piperidin]-1′-yl)methyl)thiazol-2-yl)acetamide]	24.5	250
CC(=O)Nc1ncc(CN2C[C@@]3(Cc4cc(N5CCOCC5)ncc4O3)C[C@@H]2C)s1 [Example 37, N-(5-(((2R,5′S)-5′-Methyl-5-morpholino-3H-spiro[furo[2,3-c]pyridine-2,3′-pyrrolidin]-1′-yl)methyl)thiazol-2-yl)acetamide]	< 1	9
COc1ccc2c(n1)C[C@]1(C[C@H](C)N(Cc3sc(NC(C)=O)nc3F)C1)O2 [Example 20, N-(4-Fluoro-5-(((2S,5′S)-5-methoxy-5′-methyl-3H-spiro[furo[3,2-b]pyridine-2,3′-pyrrolidin]-1′-yl)methyl)thiazol-2-yl)acetamide]	< 1	4
COc1cnc2c(n1)CC1(C[C@H](C)N(Cc3sc(NC(C)=O)nc3F)C1)O2 (stereo partly drawn) [Example 50, N-(4-Fluoro-5-(((5′S)-2-methoxy-5′-methyl-7H-spiro[furo[2,3-b]pyrazine-6,3′-pyrrolidin]-1′-yl)methyl)thiazol-2-yl)acetamide]	2.3	9
CC(=O)Nc1nc(F)c(CN2C[C@@]3(Cc4cc(NC5CC5)ncc4O3)C[C@@H]2C)s1 [Example 31, N-(5-(((2R,5′S)-5-(Cyclopropylamino)-5′-methyl-3H-spiro[furo[2,3-c]pyridine-2,3′-pyrrolidin]-1′-yl)methyl)-4-fluorothiazol-2-yl)acetamide]	< 1	15
CC(=O)Nc1nc(F)c(CN2CCCC3(C2)OCc2ccccc23)s1 (stereo not drawn) [Example 56, N-(5-((3H-Spiro[isobenzofuran-1,3′-piperidin]-1′-yl)methyl)-4-fluorothiazol-2-yl)acetamide]	17	112
COc1cc2c(cn1)O[C@]1(C2)C[C@H](C)N(Cc2cnc(NC(C)=O)s2)C1 [Example 17, N-(5-(((2R,5′S)-5-Methoxy-5′-methyl-3H-spiro[furo[2,3-c]pyridine-2,3′-pyrrolidin]-1′-yl)methyl)thiazol-2-yl)acetamide]	< 1	8
CC(=O)Nc1nc(F)c(CN2C[C@@]3(Cc4ccncc4O3)C[C@@H]2C)s1 [Example 9, N-(4-Fluoro-5-(((2R,5′S)-5′-methyl-3H-spiro[furo[2,3-c]pyridine-2,3′-pyrrolidin]-1′-yl)methyl)thiazol-2-yl)acetamide]	1	12
CC(=O)Nc1nc(F)c(CN2CCC3(C2)OCc2cnccc23)s1 (stereo not drawn) [Example 67, N-(5-((3H-Spiro[furo[3,4-c]pyridine-1,3′-pyrrolidin]-1′-yl)methyl)-4-fluorothiazol-2-yl)acetamide]	120	1000
CC(=O)Nc1nc(F)c(CN2C[C@@]3(C[C@@H]2C)OCc2cnccc23)s1 (single isomer, unassigned) [Example 64-a]	10	118
CC(=O)Nc1nc(F)c(CN2CCCC3(C2)OCc2c3ccnc2Cl)s1 (racemic) [Example 83, N-(5-((4-Chloro-3H-spiro[furo[3,4-c]pyridine-1,3′-piperidin]-1′-yl)methyl)-4-fluorothiazol-2-yl)acetamide]	5.9	18.3
COCCN(C)c1cc2c(cn1)O[C@]1(C2)C[C@H](C)N(Cc2cnc(NC(C)=O)s2)C1 [Example 32, N-(5-(((2R,5′S)-5-((2-Methoxyethyl)(methyl)amino)-5′-methyl-3H-spiro[furo[2,3-c]pyridine-2,3′-pyrrolidin]-1′-yl)methyl)thiazol-2-yl)acetamide]	< 1	7
CC(=O)Nc1ncc(CN2CCCC3(CCc4ccccc43)C2)s1 (stereo not drawn) [Example 53, N-(5-((2,3-Dihydrospiro[indene-1,3′-piperidin]-1′-yl)methyl)thiazol-2-yl)acetamide]	73	532
CC(=O)Nc1nc(F)c(CN2CCC[C@]3(C2)OCc2cnccc23)s1 (single isomer, unassigned) [Example 70-b]	850	> 1000
CC(=O)Nc1ncc(CN2CCC3(Cc4cnccc4O3)C2)s1 (stereo not drawn) [Example 13, N-(5-((3H-Spiro[furo[3,2-c]pyridine-2,3′-pyrrolidin]-1′-yl)methyl)thiazol-2-yl)acetamide]	130	796
